Experimental data reported in patent US11976083B2, “Inhibitors of peptidylarginine deiminases” (Gilead Sciences, Inc., priority 2020, dated 2024).

Target: T1, human PAD4 (Homo sapiens, UniProt Q9UM07)
T1 construct: human PAD4 (NM_012387), A2-P663, was PCR amplified; His-SUMO (N, cleaved yes); made in house; host or cells: E. coli BL21(DE3)
Assay: In vitro PAD4 BAEE biochemical assay
Settings: BAEE substrate 3 mM, 5 nM PAD4, 2 mM calcium chloride; geometric mean of multiple experiments
Summary of the method: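 Fluorescence read-out (ex 405/em 535 nm) of isoindole formed from ammonia, o-phthalaldehyde and DTT after EDTA stop. Reaction: 5 nM PAD4, 2 mM CaCl2, 3 mM BAEE, 2 h, 25 °C, after 30 min enzyme–compound preincubation. Normalised to BB-Cl-Amidine (50 µM) and DMSO controls.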

T1 sequence (Q9UM07 2-663): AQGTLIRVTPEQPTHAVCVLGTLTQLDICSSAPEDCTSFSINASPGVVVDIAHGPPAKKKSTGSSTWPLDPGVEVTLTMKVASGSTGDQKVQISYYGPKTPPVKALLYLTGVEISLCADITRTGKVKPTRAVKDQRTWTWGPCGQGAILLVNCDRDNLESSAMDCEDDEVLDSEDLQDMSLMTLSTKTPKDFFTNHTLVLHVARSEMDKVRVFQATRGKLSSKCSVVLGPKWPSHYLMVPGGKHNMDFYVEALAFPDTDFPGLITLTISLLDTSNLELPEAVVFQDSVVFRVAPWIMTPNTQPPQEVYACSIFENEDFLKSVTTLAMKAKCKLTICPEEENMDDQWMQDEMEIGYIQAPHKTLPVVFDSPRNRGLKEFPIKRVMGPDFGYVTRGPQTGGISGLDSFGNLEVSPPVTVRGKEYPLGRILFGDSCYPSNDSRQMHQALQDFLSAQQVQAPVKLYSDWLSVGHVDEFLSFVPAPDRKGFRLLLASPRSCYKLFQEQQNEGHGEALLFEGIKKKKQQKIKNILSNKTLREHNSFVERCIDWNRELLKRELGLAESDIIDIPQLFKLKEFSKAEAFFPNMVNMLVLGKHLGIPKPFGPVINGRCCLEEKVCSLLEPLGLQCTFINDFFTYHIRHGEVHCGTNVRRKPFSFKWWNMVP

IC50 [nM]	SMILES
62	C[C@H]1NC(=O)c2c(cccc2C(F)F)CCCCCn2c(-c3nc4cc(C(=O)N[C@H]5CNCC[C@@H]5F)c(F)cc4n3C)cc3ccc1nc32 [Example 384, 2-[(2~{R})-6-(difluoromethyl)-2-methyl-4-oxo-3,16,22-triazatetracyclo[14.5.2.0^{5,10}.0^{19,23}]tricosa-1(22),5(10),6,8,17,19(23),20-heptaen-17-yl]-6-fluoro-~{N}-[(3~{S},4~{S})-4-fluoro-3-piperidyl]-1-methyl-benzimidazole-5-carboxamide]
190	COc1cc(C(=O)N2CC[C@@H](OC)[C@@H](N)C2)cc2nc(-c3cc4ccc5nc4n3CCCCCc3cnc(C)nc3C(=O)N[C@@H]5C)n(C)c12 [Example 610, (2~{R})-17-[5-[(3~{S},4~ {R})-3-amino-4-methoxy-piperidine-1-carbonyl]-7-methoxy-1-methyl-benzimidazol-2-yl]-2,7-dimethyl-3,6,8,16,22-pentazatetracyclo[14.5.2.0^ {5,10}.0^{19,23}]tricosa-1(21),5(10),6,8,17,19,22-heptaen-4-one]
35	C[C@H]1NC(=O)[C@@H]2C[C@H]2CCCC(F)(F)Cn2c(-c3nc4cc(C(=O)N5C[C@H](N)[C@@H]6CC[C@H]5C6)cc(F)c4n3CC(F)F)cc3ccc1nc32 [Example 922, (2~{R},5~{R},7~{R})-14-[5-[(1~{S},4~{R},5~{R})-4-amino-2-azabicyclo[3.2.1]octane-2-carbonyl]-1-(2,2-difluoroethyl)-7-fluoro-benzimidazol-2-yl]-11,11-difluoro-2-methyl-3,13,19-triazatetracyclo [11.5.2.0^{5,7}.0^{16,20}] icosa-1(19),14,16(20),17-tetraen-4-one]
518	COc1cc(C(=O)N[C@H]2CNCCC2(F)F)cc2nc(-c3cc4ccc5nc4n3CCC/C=C/c3ccccc3C(=O)N[C@@H]5C)n(C)c12 [Example 495, ~{N}-[(3~{S})-4,4-difluoro-3-piperidyl]-7-methoxy-1-methyl-2-[(2~{R},11~{E})-2-methyl-4-oxo-3,16,22-triazatetracyclo[14.5.2.0^ {5,10}.0^{19,23}]tricosa-1(22),5(10),6,8,11, 17,19(23),20-octaen-17-yl] benzimidazole-5-carboxamide]
251	COc1cc(C(=O)N2CC[C@@H](OC)[C@@H](N)C2)cc2nc(-c3cc4ccc5nc4n3CCCCC[C@@H]3C[C@@]3(C(F)(F)F)C(=O)N[C@@H]5C)n(C)c12 [Example 634, (2~{R},5~{S},7~{R})-14-[5-[(3~{S},4~{R})-3-amino-4-methoxy-piperidine-1-carbonyl]-7-methoxy-1-methyl-benzimidazol-2-yl]-2-methyl-5-(trifluoromethyl)-3,13,19-triazatetracyclo[11.5.2.0^ {5,7}.0^{16,20}] icosa-1(19),14,16(20), 17-tetraen-4-one]
126	CO[C@@H]1CCN(C(=O)c2cc(F)c3c(c2)nc(-c2cc4ccc5nc4n2CC(F)(F)CCC[C@@H]2C[C@H]2C(=O)N[C@@H]5C)n3[C@H]2C[C@@H]2F)C[C@@H]1N [Example 834, (2~{R},5~{R},7~{R})-14-[5-[(3~{S),4~{R})-3-amino-4-methoxy-piperidine-1-carbonyl]-7-fluoro-1-[(1~{S},2~{S})-2-fluorocyclopropyl]benzimidazol-2-yl]-11,11-difluoro-2-methyl-3,13,19-triazatetracyclo [11.5.2.0^{5,7}.0^{16,20}] icosa-1(19),14,16(20), 17-tetraen-4-one]
76	COc1cc(C(=O)N[C@H]2CNCC[C@@H]2F)cc2nc(-c3cc4ccc5nc4n3CCCCCOC(C)(C)C(=O)N[C@@H]5C)n(C)c12 [Example 19, ~{N}-[(3~{S},4~{S})-4-fluoro-3-piperidyl]-7-methoxy-1-methyl-2-[(11~{R})-8,8,11-trimethyl-9-oxo-7-oxa-1,10,19-triazatricyclo[10.5.2.0^{15,18}]nonadeca-12(19),13,15(18),16-tetraen-17-yl]benzimidazole-5-carboxamide]
29	COc1cc(C(=O)N2C[C@H](N)[C@@H]3CC[C@H]2C3)cc2nc(-c3cc4ccc5nc4n3CCCCCc3cc(F)cc(F)c3C(=O)N[C@@H]5C)n(C)c12 [Example 935, (2~{R})-17-[5-[(1~{S),4~{R},5~ {R})-4-amino-2-azabicyclo[3.2.1]octane-2-carbonyl]-7-methoxy-1-methyl-benzimidazol-2-yl]-6,8-difluoro-2-methyl-3,16,22-triazatetracyclo[14.5.2.0^ {5,10}.0^{19,23}]tricosa-1(21),5(10),6,8,17,19,22-heptaen-4-one]
129	COc1cc(C(=O)N2CC[C@@H](OC)[C@@H](N)C2)cc2nc(-c3cc4ccc5nc4n3CCCCCCc3nccnc3C(=O)N[C@@H]5C)n(C)c12 [Example 606, (2~{R})-18-[5-[(3~{S},4~ {R})-3-amino-4-methoxy-piperidine-1-carbonyl]-7-methoxy-1-methyl-benzimidazol-2-yl]-2-methyl-3,6,9,17,23-pentazatetracyclo[15.5.2.0^ {5,10}.0^{20,24}]tetracosa-1(23),5(10),6,8,18,20(24), 21-heptaen-4-one]
66	COc1cc(C(=O)N2C[C@H](N)C[C@@H](F)C2)cc2nc(-c3cc4ccc5nc4n3CCCCCCC(C)(C)C(=O)N[C@@H]5C)n(C)c12 [Example 193, (11~{R})-17-[5-[(3~{R},5~{R})-3-amino-5-fluoro-piperidine-1-carbonyl]-7-methoxy-1-methyl-benzimidazol-2-yl]-8,8,11-trimethyl-1,10,19-triazatricyclo[10.5.2.0^{15,18}]nonadeca-12(19),13,15(18),16-tetraen-9-one]
26	COc1cc(C(=O)N2C[C@H](N)[C@@H]3CC[C@H]2C3)cc2nc(-c3cc4ccc5nc4n3CCCCCc3cc(Cl)ncc3C(=O)N[C@@H]5C)n(C)c12 [Example 665, (2~{R})-17-[5-[(1~{S),4~{R}, 5~{R})-4-amino-2-azabicyclo[3.2.1]octane-2-carbonyl]-7-methoxy-1-methyl-benzimidazol-2-yl]-8-chloro-2-methyl-3,7,16,22-tetrazatetracyclo[14.5.2.0^ {5,10).0^{19,23}]tricosa-1(22),5(10),6,8,17,19(23),20-heptaen-4-one]
17	C[C@H]1NC(=O)c2c(ccc3cccnc23)CCCCCn2c(-c3nc4cc(C(=O)N5C[C@H](N)[C@@H]6CC[C@H]5C6)cc(F)c4n3C3CC3)cc3ccc1nc32 [Example 841, (2~{R})-21-[5-[(1~{S},4~{R}, 5~{R})-4-amino-2-azabicyclo [3.2.1]octane-2-carbonyl]-1-cyclopropyl-7-fluoro-benzimidazol-2-yl]-2-methyl-3,7,20,26-tetrazapentacyclo [18.5.2.0^{5,14}.0^{6,1 1}.0^{23,27}]heptacosa-1(26),5(14),6(11),7,9,12,21, 23(27),24-nonaen-4-one]
405	COc1cc(C(=O)N2C[C@H]3C[C@H]3[C@H](N)C2)cc2nc(-c3cc4ccc5nc4n3CCCCCCC(C)(C)C(=O)N[C@@H]5C)n(C)c12 [Example 543, (11~{R})-17-[5-[(1~ {S},5~{S},6~{R})-5-amino-3-azabicyclo [4.1.0]heptane-3-carbonyl]-7-methoxy-1-methyl-benzimidazol-2-yl]-8,8,11-trimethyl-1,10,19-triazatricyclo [10.5.2.0^{15,18}]nonadeca-12(19),13,15(18), 16-tetraen-9-one]
28	COc1cc(C(=O)N2[C@H]3CC[C@@H]2[C@H](N)C3)cc2nc(-c3cc4ccc5nc4n3CCCCC[C@@H]3C[C@H]3C(=O)N[C@@H]5C)n(C)c12 (single isomer, unassigned) [Example 223, (2˜{R},5˜{R},7˜{R})-14-[5-[(1˜{R},2˜{R},4˜{S})-2-amino-7-azabicyclo[2.2.1]heptane-7-carbonyl]-7-methoxy-1-methyl-benzimidazol-2-yl]-2-methyl-3,13,19-triazatetracyclo[11.5.2.0^{5,7}.0^{16,20}]icosa-1(19),14,16(20),17-tetraen-4-one]
97	CO[C@@H]1CCN(C(=O)c2cc(Cl)c3c(c2)nc(-c2cc4ccc5nc4n2CCCCC[C@@H]2CC2C(=O)N[C@@H]5C)n3C)C[C@@H]1N (some centres unmarked) [Example 505, (2~{R},7~{R})-14-[5-[(3~{S},4~{R})-3-amino-4-methoxy-piperidine-1-carbonyl]-7-chloro-1-methyl-benzimidazol-2-yl]-2-methyl-3,13,19-triazatetracyclo[11.5.2.0^ {5,7}.0^{16,20}]icosa-1(19),14,16(20),17-tetraen-4-one]
6	C[C@@H]1[C@H](N)CCCN1C(=O)c1cc(Cl)c2c(c1)nc(-c1cc3ccc4nc3n1CC(F)(F)CCC[C@@H]1C[C@H]1C(=O)N[C@@H]4C)n2C1CC1 [Example 805, (2~{R},5~{R},7~{R})-14-[5-[(2~{R},3~{R})-3-amino-2-methyl-piperidine-1-carbonyl]-7-chloro-1-cyclopropyl-benzimidazol-2-yl]-11,11-difluoro-2-methyl-3,13,19-triazatetracyclo[11.5.2.0^ {5,7}.0^{16,20}]icosa-1(18),14,16,19-tetraen-4-one]
67	COc1cc(C(=O)N2C[C@H](N)[C@@H]3CC[C@H]2C3)cc2nc(-c3cc4ccc5nc4n3CC(F)(F)CCCOC3(CC3)C(=O)N[C@@H]5C)n(C)c12 [Example 761, (11~{R})-17-[5-[(1~{S},4~{R}, 5~{R})-4-amino-2-azabicyclo [3.2.1]octane-2-carbonyl]-7-methoxy-1-methyl-benzimidazol-2-yl]-3,3-difluoro-11-methyl-spiro[7-oxa-1,10,19-triazatricyclo[10.5.2.0^ {15,18}]nonadeca-12(19), 13,15(18),16-tetraene-8,1′-cyclopropane]-9-one]
